Patent US12077503B2, “Substituted cyclic amides and their use as herbicides” (FMC CORPORATION, priority 2015, dated 2024)

What was measured:
Type in all cases: in vivo
[1] = tested on: corn (Zea mays); assay: Test G Pre-Emergence Protocol; settings: evaluated after 13 days
Protocol: (§1) Seeds of corn (Zea mays), giant foxtail (Setaria faberi), barnyardgrass (Echinochloa crus-galli), ivy-leaved morning glory (Ipomoea hederacea), redroot pigweed (Amaranthus retroflexus) and velvetleaf (Abutilon theophrasti) were sown in standard soil in pots. After cultivation for one day under controlled conditions in a glasshouse (at 24/16° C., day/night; 14 hours light; 65% humidity), the plants were sprayed with an aqueous spray solution derived from the formulation of the technical active ingredient in acetone/water (50:50) solution containing 0.5% Tween 20 (polyoxyethylene sorbitan monolaurate, CAS RN 9005-64-5) to give a final dose of 15.625, 62.5 or 250 g/ha of test compound.
(§2) The test plants were then grown on under controlled conditions in a glasshouse (at 24/16° C., day/night; 14 hours light; 65% humidity) and watered twice daily. After 13 days the test was evaluated (100=total damage to plant; 0=no damage to plant). A dash (-) means no test result.

[2] = tested on: velvetleaf (Abutilon theophrasti); assay: Test G Pre-Emergence Protocol; settings: evaluated after 13 days
Protocol: as §1, §2

[3] = tested on: barnyardgrass (Echinochloa crus-galli); assay: Test G Pre-Emergence Protocol; settings: evaluated after 13 days
Protocol: as §1, §2

[4] = tested on: redroot pigweed (Amaranthus retroflexus); assay: Test G Pre-Emergence Protocol; settings: evaluated after 13 days
Protocol: as §1, §2

[5] = tested on: ivy-leaved morning glory (Ipomoea hederacea); assay: Test G Pre-Emergence Protocol; settings: evaluated after 13 days
Protocol: as §1, §2

[6] = tested on: giant foxtail (Setaria faberi); assay: Test G Pre-Emergence Protocol; settings: evaluated after 13 days
Protocol: as §1, §2

[7] = tested on: corn (Zea mays); assay: Test G Post-Emergence Protocol
Protocol: as §1, with “8 days” for “one day”
as §2

[8] = tested on: velvetleaf (Abutilon theophrasti); assay: Test G Post-Emergence Protocol
Protocol: as §1, with “8 days” for “one day”
as §2

[9] = tested on: barnyardgrass (Echinochloa crus-galli); assay: Test G Post-Emergence Protocol
Protocol: as §1, with “8 days” for “one day”
as §2

[10] = tested on: redroot pigweed (Amaranthus retroflexus); assay: Test G Post-Emergence Protocol
Protocol: as §1, with “8 days” for “one day”
as §2

[11] = tested on: ivy-leaved morning glory (Ipomoea hederacea); assay: Test G Post-Emergence Protocol
Protocol: as §1, with “8 days” for “one day”
as §2

[12] = tested on: giant foxtail (Setaria faberi); assay: Test G Post-Emergence Protocol
Protocol: as §1, with “8 days” for “one day”
as §2

[13] = 62.5 g ai/ha, 100=total damage to plant, 0=no damage to plant
[14] = 15.625 g ai/ha, evaluated after 13 days (100=total damage to plant; 0=no damage to plant)
[15] = 62.5 g ai/ha, evaluated after 13 days
[16] = 250 g ai/ha, evaluated after 13 days

Cc1nc(Cl)ccc1[C@@H]1CN(C)C(=O)[C@H]1C(=O)Nc1cccc(F)c1F [Compound 1463]
90: Barnyardgrass damage rating (100=total damage to plant; 0=no damage to plant) ([3]; 250 g ai/ha) | Foxtail, Giant damage rating (100=total damage to plant; 0=no damage to plant) ([6]; 250 g ai/ha)
50: plant damage rating, Barnyardgrass [3, 13]
30: damage to plant, Barnyardgrass (100=total damage to plant; 0=no damage to plant) [9, 16]
70: plant damage rating, Foxtail, Giant [6, 13] | damage to plant, Foxtail, Giant (100=total damage to plant; 0=no damage to plant) [12, 16]
20: damage to plant, Velvetleaf (100=total damage to plant; 0=no damage to plant) [8, 16] | damage to plant, Morningglory, Ivy-leaved (100=total damage to plant; 0=no damage to plant) [11, 16]
0: Corn damage rating (100=total damage to plant; 0=no damage to plant) ([1]; 15.625 g ai/ha) | plant damage rating, Corn [1, 13] | Corn damage rating (100=total damage to plant; 0=no damage to plant) ([1]; 250 g ai/ha) | Velvetleaf damage rating (100=total damage to plant; 0=no damage to plant) ([2]; 15.625 g ai/ha) | plant damage rating, Velvetleaf [2, 13] | Velvetleaf damage rating (100=total damage to plant; 0=no damage to plant) ([2]; 250 g ai/ha) | Pigweed, Redroot damage rating (100=total damage to plant; 0=no damage to plant) ([4]; 15.625 g ai/ha) | plant damage rating, Pigweed, Redroot [4, 13] | Pigweed, Redroot damage rating (100=total damage to plant; 0=no damage to plant) ([4]; 250 g ai/ha) | Morning-glory, Ivy-leaved damage rating (100=total damage to plant; 0=no damage to plant) ([5]; 15.625 g ai/ha) | plant damage rating, Morningglory, Ivy-leaved [5, 13] | Morningglory, Ivy-leaved damage rating (100=total damage to plant; 0=no damage to plant) ([5]; 250 g ai/ha) | Foxtail, Giant damage rating (100=total damage to plant; 0=no damage to plant) ([6]; 15.625 g ai/ha) | Corn damage rating [7, 14] | Velvetleaf damage rating [8, 14] | Barnyardgrass damage rating [9, 14] | Barnyardgrass damage rating (100=total damage to plant; 0=no damage to plant) [9, 15] | Pigweed, Redroot damage rating [10, 14] | Morningglory, Ivy-leaved damage rating [11, 14] | Morningglory, Ivy-leaved damage rating (100=total damage to plant; 0=no damage to plant) [11, 15] | Foxtail, Giant damage rating [12, 14] | Foxtail, Giant damage rating (100=total damage to plant; 0=no damage to plant) [12, 15]
10: Barnyardgrass damage rating (100=total damage to plant; 0=no damage to plant) ([3]; 15.625 g ai/ha) | Corn damage rating (100=total damage to plant; 0=no damage to plant) [7, 15] | damage to plant, Corn (100=total damage to plant; 0=no damage to plant) [7, 16] | Velvetleaf damage rating (100=total damage to plant; 0=no damage to plant) [8, 15] | Pigweed, Redroot damage rating (100=total damage to plant; 0=no damage to plant) [10, 15] | damage to plant, Pigweed, Redroot (100=total damage to plant; 0=no damage to plant) [10, 16]

CCOc1cc(F)cc(C2CN(C)C(=O)C2C(=O)Nc2cccc(F)c2F)c1 (centres unmarked) [Compound 1695]
0%: pest or weed control at 15.625 g/ha ([2]; Abutilon theophrasti, pre-emergence, 312 h, 15.625 g ai/ha, read-out: Velvetleaf damage rating (100=total damage to plant; 0=no damage to plant)) | pest or weed control at 62.5 g/ha ([2]; Abutilon theophrasti, pre-emergence, 312 h, 62.5 g ai/ha, 100=total damage to plant, 0=no damage to plant, read-out: Velvetleaf damage rating) | pest or weed control at 15.625 g/ha ([4]; Amaranthus retroflexus, pre-emergence, 312 h, 15.625 g ai/ha, read-out: Pigweed, Redroot damage rating (100=total damage to plant; 0=no damage to plant)) | pest or weed control at 62.5 g/ha ([4]; Amaranthus retroflexus, pre-emergence, 312 h, 62.5 g ai/ha, 100=total damage to plant, 0=no damage to plant, read-out: Pigweed, Redroot damage rating) | pest or weed control at 15.625 g/ha ([5]; Ipomoea, pre-emergence, 312 h, 15.625 g ai/ha, read-out: Morningglory, Ivy-leaved damage rating (100=total damage to plant; 0=no damage to plant)) | pest or weed control at 15.625 g/ha ([8]; Abutilon theophrasti, post-emergence, 312 h, 15.625 g ai/ha, evaluated after 13 days (100=total damage to plant; 0=no damage to plant), read-out: Velvetleaf damage rating)
10%: plant injury at 15.625 g/ha ([1]; Zea mays, pre-emergence, 312 h, 15.625 g ai/ha, read-out: Corn damage rating (100=total damage to plant; 0=no damage to plant)) | pest or weed control at 62.5 g/ha ([8]; Abutilon theophrasti, post-emergence, 312 h, 62.5 g ai/ha, evaluated after 13 days, 100=total damage to plant, 0=no damage to plant, read-out: Velvetleaf damage rating) | pest or weed control at 15.625 g/ha ([10]; Amaranthus retroflexus, post-emergence, 312 h, 15.625 g ai/ha, evaluated after 13 days (100=total damage to plant; 0=no damage to plant), read-out: Pigweed, Redroot damage rating) | pest or weed control at 62.5 g/ha ([10]; Amaranthus retroflexus, post-emergence, 312 h, 62.5 g ai/ha, evaluated after 13 days, 100=total damage to plant, 0=no damage to plant, read-out: Pigweed, Redroot damage rating) | pest or weed control at 15.625 g/ha ([11]; Ipomoea, post-emergence, 312 h, 15.625 g ai/ha, evaluated after 13 days (100=total damage to plant; 0=no damage to plant), read-out: Morningglory, Ivy-leaved damage rating)
70%: pest or weed control at 15.625 g/ha ([6]; Setaria faberi, pre-emergence, 312 h, 15.625 g ai/ha, read-out: Foxtail, Giant damage rating (100=total damage to plant; 0=no damage to plant)) | plant injury at 62.5 g/ha ([7]; Zea mays, post-emergence, 312 h, 62.5 g ai/ha, evaluated after 13 days, 100=total damage to plant, 0=no damage to plant, read-out: Corn damage rating)
90%: pest or weed control at 62.5 g/ha ([3]; Echinochloa crus-galli, pre-emergence, 312 h, 62.5 g ai/ha, 100=total damage to plant, 0=no damage to plant, read-out: Barnyardgrass damage rating) | pest or weed control at 62.5 g/ha ([6]; Setaria faberi, pre-emergence, 312 h, 62.5 g ai/ha, 100=total damage to plant, 0=no damage to plant, read-out: Foxtail, Giant damage rating)
40%: plant injury at 62.5 g/ha ([1]; Zea mays, pre-emergence, 312 h, 62.5 g ai/ha, 100=total damage to plant, 0=no damage to plant, read-out: Corn damage rating)
20%: pest or weed control at 62.5 g/ha ([11]; Ipomoea, post-emergence, 312 h, 62.5 g ai/ha, evaluated after 13 days, 100=total damage to plant, 0=no damage to plant, read-out: Morningglory, Ivy-leaved damage rating)
30%: plant injury at 15.625 g/ha ([7]; Zea mays, post-emergence, 312 h, 15.625 g ai/ha, evaluated after 13 days (100=total damage to plant; 0=no damage to plant), read-out: Corn damage rating)
80%: pest or weed control at 15.625 g/ha ([9]; Echinochloa crus-galli, post-emergence, 312 h, 15.625 g ai/ha, evaluated after 13 days (100=total damage to plant; 0=no damage to plant), read-out: Barnyardgrass damage rating) | pest or weed control at 62.5 g/ha ([9]; Echinochloa crus-galli, post-emergence, 312 h, 62.5 g ai/ha, evaluated after 13 days, 100=total damage to plant, 0=no damage to plant, read-out: Barnyardgrass damage rating) | pest or weed control at 15.625 g/ha ([12]; Setaria faberi, post-emergence, 312 h, 15.625 g ai/ha, evaluated after 13 days (100=total damage to plant; 0=no damage to plant), read-out: Foxtail, Giant damage rating) | pest or weed control at 62.5 g/ha ([12]; Setaria faberi, post-emergence, 312 h, 62.5 g ai/ha, evaluated after 13 days, 100=total damage to plant, 0=no damage to plant, read-out: Foxtail, Giant damage rating)
50%: pest or weed control at 15.625 g/ha ([3]; Echinochloa crus-galli, pre-emergence, 312 h, 15.625 g ai/ha, read-out: Barnyardgrass damage rating (100=total damage to plant; 0=no damage to plant))
